Measured values as given in patent US20180243421A1, “IMMUNOSTIMULATING AGENT” (AJINOMOTO CO., INC., priority 2015, published 2018).

Legend:
[1] = system: anti-OVA-specific IgG1 subclass antibody; assay: Adjuvant activity: anti-OVA-specific IgG1 subclass antibody in serum after secondary immunization (Examples 12, 19, 20, 21); format: in vivo, BALB/c mice; conditions: two weeks from secondary immunization
Protocol: 8-Week-old female BALB/c mice were divided into groups (N=6), and each group was primarily immunized by dorsal-subcutaneous administration of (1) ovalbumin (OVA) (5 μg) dissolved in saline as an antigen (OVA single administration group), (2) OVA (5 μg) added to 5% αCD-added saline, (3) OVA (5 μg) added to 10% HP-β-CD-added saline, (4) OVA (5 μg) and SZ62 (0.256 μmol) dissolved or dispersed in 5% αCD-added saline, and (5) OVA (5 μg) and SZ62 (0.256 μmol) dissolved in 10% HP-β-CD-added saline, each per mouse. One week later, the secondary immunization was carried out by dorsal-subcutaneous administration of solutions or dispersions similar to those of the above-mentioned (1) to (5) again. Two weeks from the secondary immunization, the blood was extracted under anesthesia, and the obtained serum samples were measured for anti-OVA-specific IgG1 subclass antibody.
(§1) Measurement Method of Concentration of anti-OVA-specific IgG1 Subclass Antibody and anti-OVA-specific IgG2a Subclass Antibody
(§2) To a 96 well plate was added 5 μg/ml OVA at 100 μl/well, and the mixture was incubated at 4° C. overnight. After incubation, the mixture was washed three times with 200 μl of PBS-T (PBS+0.05% (v/v) Tween 20) per well, and blocked with 100 μl of 5% FCS/PBS solution per well at room temperature for 1 to for 2 hr. Thereafter, the mixture was washed three times with PBS-T (200 μl/well), a diluted serum sample (100 μl/well) or the same amount of 5% FCS/PBS solution as a control was added, to and the mixture was incubated at 37° C. for 1 hr. To calculate concentration of the antibody, the standard of an anti-OVA-specific IgG1 subclass antibody diluted with 2% FCS/PBS solution was added at 100 ng/ml, 50 ng/ml, 25 ng/ml, 12.5 ng/ml, 6.25 ng/ml, 3.125 ng/ml, 1.56 ng/ml, 0.781 ng/ml, 0.391 ng/ml, 0.195 ng/ml, 0.098 ng/ml, 0 ng/ml, per 1 well. When an anti-OVA-specific IgG2a subclass antibody was measured, the standard of an anti-OVA-specific IgG2a subclass antibody was added at 50 ng/ml, 25 ng/ml, 12,5 ng/ml, 6.25 ng/ml, 3.125 ng/ml, 1.56 ng/ml, 0.781 ng/ml, 0.391 ng/ml, 0.195 ng/ml, 0.098 ng/ml, 0.049 ng/ml, 0 ng/ml, per 1 well. […] Thereafter, the mixture was washed five times with PBS-T (200 μl/well), a diluted anti-biotin-HRP antibody was added (100 μl/well), and the mixture was incubated at 37° C. for another 30 min. Thereafter, the mixture was washed five times with PBS-T (200 μl/well), TMB substrate solution was added (100 μl/well), and the mixture was incubated at room temperature for 10- for 15 min. Thereafter, a reaction quenching liquid (2N sulfuric acid solution) was added (50 μl/well) to discontinue a color developing reaction, and the absorbance (OD Value=450 nm) was measured by a microplate reader. A standard curve was drawn from the measured OD values, and the concentration was calculated.
8-Week-old female BALB/c mice were divided into groups (N=6), and each group was primarily immunized by dorsal-subcutaneous administration of (1) ovalbumin (OVA) (5 μg) dissolved in saline as an antigen (OVA single administration group), (2) OVA 10 μg and Addavax™ (mixed with saline at 1:1) dissolved in saline (Addavax™ administration group), (3) OVA (5 μg) and SZ86 (0.256 μmol) dissolved or dispersed in 5% αCD-added saline (SZ86 administration group), (4) OVA (5 μg) and SZ90 (0.256 μmol) dissolved or dispersed in 5% αCD-added saline (SZ90 administration group), (5) OVA (5 μg) and SZ92 (0.256 μmol) dissolved or dispersed in 5% αCD-added saline (SZ92 administration group), (6) OVA (5 μg) and SZ99 (0.256 μmol) dissolved or dispersed in 5% αCD-added saline (SZ99 administration group), (7) OVA (5 μg) and SZ106 (0.256 μmol) dissolved or dispersed in 5% αCD-added saline (SZ106 administration group), each per mouse. One week later, the secondary immunization was carried out by dorsal-subcutaneous administration of solutions or dispersions similar to those of the above-mentioned (1)-(7) again.

[2] = system: anti-OVA-specific IgG1 subclass antibody; assay: Adjuvant activity after primary immunization: anti-OVA-specific IgG1 subclass antibody in serum (Examples 13-18); format: in vivo, BALB/c mice; conditions: OVA 5 μg + 0.256 μmol in 5% αCD saline s.c., serum after 12 days
Protocol: 8-Week-old female BALB/c mice were divided into groups (N=6), and each group was primarily immunized by dorsal-subcutaneous administration of (1) ovalbumin (OVA) (5 μg) dissolved in saline as an antigen (OVA single administration group), (2) OVA (5 μg) and SZ83 (0.256 μmol) dissolved or dispersed in 5% αCD-added saline (SZ83 administration group), (3) OVA (5 μg) and SZ84 (0.256 μmol) dissolved or dispersed in 5% αCD-added saline (SZ84 administration group), (4) OVA (5 μg) and SZ86 (0.256 μmol) dissolved or dispersed in 5% αCD-added saline (SZ86 administration group), (5) OVA (5 μg) and SZ89 (0.256 μmol) dissolved or dispersed in 5% αCD-added saline (SZ89 administration group), (6) OVA (5 μg) and SZ90 (0.256 μmol) dissolved or dispersed in 5% αCD-added saline (SZ90 administration group), each per mouse. After 12 days, blood samples were collected under anesthesia, and the obtained serum samples were subjected to the measurement of an anti-OVA-specific IgG1 subclass antibody.
as §1, §2
8-Week-old female BALB/c mice were divided into groups (N=6), and each group was primarily immunized by dorsal-subcutaneous administration of (1) ovalbumin (OVA) (5 μg) dissolved in saline as an antigen (OVA single administration group), (2) OVA (5 μg) and SZ92 (0.256 μmol) dissolved or dispersed in 5% αCD-added saline (SZ92 administration group), (3) OVA (5 μg) and SZ94 (0.256 μmol) dissolved or dispersed in 5% αCD-added saline (SZ94 administration group), (4) OVA (5 μg) and SZ95 (0.256 μmol) dissolved or dispersed in 5% αCD-added saline (SZ95 administration group), (5) OVA (5 μg) and SZ96 (0.256 μmol) dissolved or dispersed in 5% αCD-added saline (SZ96 administration group), each per mouse. After 12 days, blood samples were collected under anesthesia, and the obtained serum samples were subjected to the measurement of anti-OVA-specific IgG1 subclass antibody.

[3] = Example 19, OVA 5 μg + 0.256 μmol in 5% αCD saline s.c. (Addavax 1:1 with OVA 10 μg)
[4] = Example 20, OVA 5 μg + 0.256 μmol in 5% αCD saline s.c. (Addavax 1:1 with OVA 10 μg)

Row | Structure (SMILES) | anti-OVA-specific IgG1 subclass antibody production as compared to the OVA single administration group [1, 3] | anti-OVA-specific IgG1 subclass antibody production after primary immunization as compared to the OVA single administration group ([2]; Example 15) | anti-OVA-specific IgG1 subclass antibody production as compared to the OVA single administration group [1, 4] | further results
1 | CCCCCCCCCCCCCCCC(=O)N[C@@H](CCCNC(=N)N)C(=O)OCCCCCC.Cl [SZ99, N^2-hexadecanoyl-L-arginine hexyl ester hydrochloride salt] | tended to increase | significantly increased | – | –
2 | CCCCCCCCCCCCCCCCCCC(CCCCCCCCCCCCCCCCCC)C(=O)N[C@@H](CC(C)C)C(=O)OC [SZ86, N-(2-octadecyleicosanoyl)-L-leucine methyl ester] | tended to increase | – | tended to increase | anti-OVA-specific IgG1 subclass antibody production after primary immunization ([2]; Example 13): show a tendency to increase
3 | CCCCCCCCCCCCCCCC(=O)N[C@@H](CC(C)C)C(=O)OCCCCCC [SZ97, N-hexadecanoyl-L-leucine hexyl ester] | – | show a tendency to increase | significantly increased | –
4 | CCCCCCCCCCCCCCCCCCCCCC(=O)N[C@@H](CCC(=O)O)C(=O)N(CC)CC [SZ106, N^2-docosanoyl-N^1,N^1-diethyl-L-glutamic acid 1-amide] | tended to increase | show a tendency to increase | tended to increase | –
5 | CCCCCCCCCCCCCCCCCCCCCC(=O)NC(=N)NCCCCN.Cl [SZ108, N-docosanoylagmatine hydrochloride salt] | – | – | tended to increase | anti-OVA-specific IgG1 subclass antibody production after primary immunization as compared to the OVA single administration group ([2]; Example 16): significantly increased
6 | CCCCCCCCCCCCCCCC(=O)N[C@@H](CC(C)C)C(=O)N(CC)CC [SZ92, N^2-hexadecanoyl-N^1,N^1-diethyl-L-leucinamide] | significantly increased | – | significantly increased | anti-OVA-specific IgG1 subclass antibody production after primary immunization as compared to the OVA single administration group ([2]; Example 14): significantly increased
7 | CCCCCCCCCCCCCCCC(=O)NC(=N)NCCCCN [SZ62, N-hexadecanoylagmatine] | – | – | – | anti-OVA-specific IgG1 subclass antibody production as compared to the OVA single administration group ([1]; Example 12, SZ62 0.256 μmol dispersed in 5% αCD-added saline, OVA 5 μg s.c.): significantly increased; anti-OVA-specific IgG1 subclass antibody production as compared to the OVA single administration group ([1]; Example 12, SZ62 0.256 μmol dissolved in 10% HP-β-CD-added saline, OVA 5 μg s.c.): significantly increased
